Measurements from ChEMBL document CHEMBL1150138, “The isolation of two new chromone derivatives from the New Zealand fungus Tolypocladium extinguens” (2002).
In brackets after ≈: the same amount, converted by molar mass. Activity calls are given as the source filed them. The calls are words filed in the database; no cut-off is given here.

How the values were obtained:
P388 = test: Cytotoxicity against mouse P388 cells after 1 to 11 days by MTT assay; format: functional; conditions: read-out: ID50 (the source's name)
Escherichia coli = test: Antimicrobial activity against Escherichia coli by disk susceptibility test; format: functional, organism-based
Bacillus subtilis = test: Antimicrobial activity against Bacillus subtilis by disk susceptibility test; format: functional, organism-based
Pseudomonas aeruginosa = test: Antimicrobial activity against Pseudomonas aeruginosa by disk susceptibility test; format: functional, organism-based
Candida albicans = test: Antimicrobial activity against Candida albicans by disk susceptibility test; format: functional, organism-based
[1] = tested on: Trichophyton mentagrophytes; test: Antimicrobial activity against Trichophyton mentagrophytes by disk susceptibility test; format: functional, organism-based
Amorphotheca resinae = test: Antimicrobial activity against Cladosporium resinae by disk susceptibility test; format: functional, organism-based

| Structure (SMILES) | IC50 (P388) [µg/mL] | Activity (Escherichia coli) | Activity (Bacillus subtilis) | Activity (Pseudomonas aeruginosa) | Activity (Candida albicans) | Activity [1] | Activity (Amorphotheca resinae) |
| --- | --- | --- | --- | --- | --- | --- | --- |
| COCc1c(OC)cc2oc(C)cc(=O)c2c1O | 6 (≈ 24 µM) | inactive | inactive | inactive | inactive | inactive | inactive |
| COCc1c(OC)cc2oc(CO)cc(=O)c2c1O |  | inactive | inactive | inactive | inactive | inactive | inactive |
| COc1cc2oc(C)cc(=O)c2c(O)c1CO |  | inactive | inactive | inactive | inactive | inactive | inactive |
